# US9539237B2, “Compositions and methods for drug-sensitization or inhibition of a cancer cell” (The Texas A&M University System, priority 2012, dated 2017)
# Tests used:
# [1] = test system: CHOP-resistant G3 NHL cells; assay: Cell growth assay (resazurin fluorescence) on G3 cells; assay type: cell-based, human
# [2] = test system: lymphoma aspirate from a dog with CHOP-resistant lymphoma; assay: CHOP responsiveness of lymphoma aspirate from a dog (resazurin); assay type: cell-based
# Experimental: A single lymphoma aspirate from a dog with CHOP-resistant lymphoma was tested for responsiveness to CHOP in the presence or absence of rifabutin. CHOP-responsiveness was measured by a decrease in fluorescence signal generated by resazurin.
# [3] = test system: G3 CHOP-resistant NHL cells; assay: G3 tumor efficacy studies in SCID mice; assay type: in vivo
# Experimental: In a first efficacy study, 6-8 week old female SCID mice (7 mice per treatment arm) were injected subcutaneously on both flanks with 1×10^7 G3 CHOP-resistant NHL cells. Once palpable tumors (about […] size) appeared, therapies (CHOP or CHOP+rifabutin) were started. CHOP was administered at the maximum tolerated dose (cyclophosphamide, 40 mg/kg i.v.; doxorubicin, 3.3 mg/kg i.v.; vincristine, 0.5 mg/kg i.v.; and prednisone, 0.2 mg/kg orally daily for 5 d) weekly for 3 weeks. Rifabutin in an amount of 100 mg/kg was administered on the day of each CHOP treatment and 24-hours later by gavage. Mouse body weight and tumor size were monitored every two days and tumor size measured by caliper. The tumor volume formula (L*W*W)/2 was used to calculate tumor mass.
# A second efficacy study was conducted where mice were treated before the appearance of palpable tumors. In that experiment, one week after transplantation of CHOP-resistant G3 cells, one group (7 mice) was treated with CHOP-only and a second group (8 mice) was treated with CHOP+rifabutin.
# A third study was conducted in which mice injected with CHOP-resistant G3 cells received reduced dosages of CHOP in combination with 33 mg/kg rifabutin. CHOP+rifabutin was administered weekly beginning one week post-inoculation. Control mice were given no CHOP or rifabutin.
# SCID mice were injected with CHOP-resistant G3 cells in the same manner as the first efficacy study above. Treatments began 2 weeks post-inoculation and were administered twice weekly.
# [4] = test system: primary human fibroblasts; assay: Comparative cytotoxicity on primary human fibroblasts; conditions: FIG. 3A and 3B
# [5] = test system: CHOP-sensitive NHL cell line CRL2631; assay: Cell growth assay (resazurin fluorescence) on CRL2631 cells; assay type: cell-based, human
# From the text: Several human cell lines were utilized as in vitro models of NHL, including the CRL2631 line obtained from the American Type Culture Collection (ATCC). CRL2631 was established from peripheral blood leukocytes (PBL) of a patient with DLBCL.
# In these experiments, the following cell lines were used: CHOP-resistant NHL cell line G3, CHOP-sensitive NHL cell line CRL2631, the multi-drug resistant sarcoma cell line MES-SA-Dx5; multi-drug-resistant breast cancer cell line MDA-MB-231, multi-drug resistant ovarian carcinoma cell line SK-OV3, multi-drug resistant ovarian cancer cell line NCI/ADR-RES, drug-sensitive ovarian cancer cell line OVCAR-5, and multi-drug resistant ovarian cancer cell line OVCAR-3.
# Additional cell lines used include: ovarian cancer OVCAR-8. T lymphoblastoid leukemia MOLT-4, dexamethasone-resistant multiple myeloma MM.1R, myeloid leukemia cells HL-60, osteosarcoma cells U-2 OS, and myeloma RPMI 8226.
# total intracellular ROS = assay: Intracellular ROS by CellROX staining and flow cytometry; assay type: cell-based; conditions: CHOP-resistant (G3) cells, 10 uM rifabutin, FIG. 35
# [6] = test system: CHOP-sensitive CRL2631 cells; assay: Prevention of the emergence of CHOP resistance in CRL2631 cells; assay type: cell-based, human; conditions: half (0.5×) and full (1×) doses of CHOP, one week treatment
# Experimental: The ability of rifabutin to prevent the emergence of CHOP-resistance was determined by treating CHOP-sensitive CRL2631 cells with either CHOP alone or CHOP+rifabutin for one week. Following treatment, the cells were grown in the absence of CHOP, then their sensitivity to CHOP was assayed by retreatment with CHOP, followed by counting of viable cells. […] A 1× CHOP dose in this experiment corresponds to final concentrations of the following components: 0.83 μM 4-hydroxycyclophosphamide [4HC, a pre-activated form of cyclophosphamide], 0.057 μM doxorubicin, 0.01 μM vincristine, and 0.186 μM prednisone.
# ABCB1 pumps = ABCB1 pumps (Homo sapiens, UniProt P08183); conditions: NCI/ADR-RES and G3 cells
# Sequence of ABCB1 pumps (P08183 whole entry): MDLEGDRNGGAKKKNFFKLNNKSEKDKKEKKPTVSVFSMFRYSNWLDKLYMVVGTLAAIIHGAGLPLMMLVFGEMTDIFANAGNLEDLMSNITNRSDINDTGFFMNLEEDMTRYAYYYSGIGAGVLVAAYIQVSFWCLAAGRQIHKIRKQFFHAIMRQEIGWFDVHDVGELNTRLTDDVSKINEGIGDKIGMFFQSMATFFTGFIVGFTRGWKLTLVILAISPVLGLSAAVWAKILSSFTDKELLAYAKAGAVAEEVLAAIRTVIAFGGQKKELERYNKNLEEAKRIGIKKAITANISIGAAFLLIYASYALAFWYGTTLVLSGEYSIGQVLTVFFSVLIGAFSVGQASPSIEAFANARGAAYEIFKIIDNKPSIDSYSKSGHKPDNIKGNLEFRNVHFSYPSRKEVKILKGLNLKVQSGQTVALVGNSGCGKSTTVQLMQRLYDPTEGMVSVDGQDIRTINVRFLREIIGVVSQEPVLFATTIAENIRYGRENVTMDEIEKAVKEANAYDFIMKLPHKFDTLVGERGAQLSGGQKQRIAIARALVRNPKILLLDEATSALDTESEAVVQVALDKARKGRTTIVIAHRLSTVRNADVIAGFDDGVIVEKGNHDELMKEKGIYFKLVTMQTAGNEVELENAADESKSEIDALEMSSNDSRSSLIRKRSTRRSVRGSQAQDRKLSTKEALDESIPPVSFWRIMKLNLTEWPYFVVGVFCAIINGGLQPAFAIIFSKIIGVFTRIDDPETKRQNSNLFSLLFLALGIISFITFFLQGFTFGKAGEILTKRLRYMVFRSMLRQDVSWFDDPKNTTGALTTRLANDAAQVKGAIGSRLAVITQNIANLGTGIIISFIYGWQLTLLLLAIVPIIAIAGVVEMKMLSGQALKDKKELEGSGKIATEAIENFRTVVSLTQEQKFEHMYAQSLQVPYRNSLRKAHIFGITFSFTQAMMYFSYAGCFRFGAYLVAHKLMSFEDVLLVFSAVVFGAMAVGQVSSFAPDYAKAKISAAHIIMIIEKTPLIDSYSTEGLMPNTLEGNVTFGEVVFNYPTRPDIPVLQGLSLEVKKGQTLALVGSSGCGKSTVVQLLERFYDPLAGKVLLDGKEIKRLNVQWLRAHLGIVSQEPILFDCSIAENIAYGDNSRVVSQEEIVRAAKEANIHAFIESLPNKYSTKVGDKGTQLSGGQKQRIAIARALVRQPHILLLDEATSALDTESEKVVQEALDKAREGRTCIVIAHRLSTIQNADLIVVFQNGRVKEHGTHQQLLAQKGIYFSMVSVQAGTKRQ
smiles,measurement,setting,value
"CO[C@H]1/C=C/O[C@@]2(C)Oc3c(C)c(O)c4c(c3C2=O)C2=NC3(CCN(CC(C)C)CC3)NC2=C(NC(=O)/C(C)=C\C=C\[C@H](C)[C@H](O)[C@@H](C)[C@@H](O)[C@@H](C)[C@H](OC(C)=O)[C@@H]1C)C4=O [Rifabutin, rifabutin]",Magnitude of potentiation in combination with doxorubicin,[1]; G3,+++ (+++ potentiation greater than 5 fold increase)
same,Effect on growth of cells in the absence of CHOP,"[1]; G3 cells, FIG. 2A",did not affect the growth
same,Sensitivity of aspirated lymphoma cells to CHOP,[2]; 5 μM rifabutin,significantly enhanced the sensitivity
same,Effect on cell viability in the absence of CHOP,[2]; absence of CHOP,no effect
same,Overall tumor burden per mouse versus CHOP only,"[3]; first study, CHOP at maximum tolerated dose weekly for 3 weeks + rifabutin 100 mg/kg by gavage",much lower
same,Tumor load versus untreated mice,"[3]; third study, reduced dosages of CHOP + 33 mg/kg rifabutin weekly",significantly less
same,Toxicity to normal cells,[4],not toxic
same,Sensitivity of cells to CHOP,"[5]; CHOP-sensitive cells, relative to a control drug, FIG. 2B",enhanced the sensitivity
same,Effect on growth of cells in the absence of CHOP,"[5]; CRL2631 cells, FIG. 2A",did not affect the growth
same,Sensitization of low-ROS cell population to CHOP,"[5]; low-ROS CRL2631 cells, 10 uM rifabutin, FIG. 34",sensitized to CHOP
same,Induction of ROS,total intracellular ROS,rapidly induces ROS
same,Emergence of CHOP-resistant cells,[6],significantly repress
same,Inhibition of efflux pumps,ABCB1 pumps,clear inhibition
